What was measured:
[1] = tested on: CCDC6-RET, NCOA4-RET, and FGFR1OP-RET; assay: RET phosphorylation Western blot in NIH3T3 cells, rearranged RET; format: cell-based; settings: 2 h
Method: Fibroblasts transfected with RET/C634R were treated with increasing doses of NPA101.3, ranging from 0.1 to 10.0 nM. RET autophosphorylation was assessed by Western blotting using two different antibodies that can recognize phosphorylated Y905, located in the RET kinase activation loop, or Y1062, a multidocking site involved in RET downstream signaling.[41]
Figure 4 NPA101.3-mediated inhibition of phosphorylation and signaling of oncogenic RET mutants and VEGFR2 in intact cells. Serum-starved RAT1 cells exogenously expressing the (A and B) indicated RET point mutants or (C) NIH3T3 cells exogenously expressing the indicated RET rearranged mutants were treated for 2 h with the indicated concentrations of the compound. Total cell lysates (50 μg) were subjected to immunoblotting with anti-phospho-Y1062 (αp1062) and anti-phospho-Y905 (αp905) RET antibodies. The blots were normalized using the anti-RET (αRET) antibody. (D) HEK293 cells were transiently transfected with human VEGFR2; 36 h after transfection, cells were serum starved for 12 h. The indicated doses of the compound or vehicle (NT) were added for 2 h, and then VEGFA (100 ng/mL) stimulation was applied for 15 min. […]
Protein lysates were prepared according to standard procedures. […] Immune complexes were detected with the enhanced chemiluminescence kit (Amersham Pharmacia Biotech, Little Chalfont, U.K.). […]

NIH3T3 RET/C634Y cells = assay: Phosphorylation and signalling Western blot in NIH3T3 RET/C634Y cells; format: cell-based; settings: 10.0 nM, 2 h
Method: (§1) Protein lysates were prepared according to standard procedures. Briefly, cells were lysed in a buffer containing 50 mM N-2-hydroxyethylpiperazine-N′-2-ethanesulfonic acid (HEPES; pH 7.5), 1% (v/v) Triton X-100, 150 mM NaCl, 5 mM EGTA, 50 mM NaF, 20 mM sodium pyrophosphate, 1 mM sodium vanadate, 2 mM phenylmethanesulfonyl fluoride (PMSF), and 1 μg/mL aprotinin. Lysates were clarified by centrifugation at 10000g for 15 min. […] Immune complexes were detected with the enhanced chemiluminescence kit (Amersham Pharmacia Biotech, Little Chalfont, U.K.). Anti-phospho-SHC (#Y317), which recognizes SHC protein when phosphorylated on Y317, was from Upstate Biotechnology Inc. (Lake Placid, NY). Anti-SHC (H-108) was from Santa Cruz Biotechnology (Santa Cruz, CA). Anti-MAPK (9101) and anti-phospho-MAPK (9102), specific for p42/44MAPK (ERK1/2) phosphorylated on Thr202/Tyr204, antibodies were from Cell Signaling Technologies (Danvers, MA). Anti-phospho-VEGFR2/KDR (2478), specific for VEGFR2/KDR phosphorylated on Tyr1175, and anti-VEGFR2/KDR (2479) were from Cell Signaling Technologies. Anti-phospho-p70S6K (9234), specific for p70S6K phosphorylated on Thr389, and anti-p70S6K (2708) were from Cell Signaling Technologies. […]

[2] = tested on: Nthy-ori-3.1, BCPAP, 8505-C, PC-9, A549, CALU-1; assay: SHC/MAPK signalling in control cell lines lacking RET oncogenes; format: cell-based, human; settings: 2 h treatment
Method: NPA101.3 inhibited RET autophosphorylation and signaling along the SHC/MAPK pathway in human cancer cell lines endogenously expressing RET oncogenic variants, including MTC cell lines, TT (RET/C634W) and MZ-CRC-1 (RET/M918T), and PTC cell line TPC-1 (CCDC6-RET); in the lung adenocarcinoma cell line Lc-2/ad (CCDC6-RET), only RET and SHC (but not MAPK) dephosphorylation was detectable (Figure S4).
as §1, with “MA).” for “MA). Anti-phospho-VEGFR2/KDR (2478), specific for VEGFR2/KDR phosphorylated on Tyr1175, and anti-VEGFR2/KDR (2479) were from Cell Signaling Technologies. Anti-phospho-p70S6K (9234), specific for p70S6K phosphorylated on Thr389, and anti-p70S6K (2708) were from Cell Signaling Technologies.”

CSNK1A1 = biological target: T1, CSNK1A1 (Homo sapiens, UniProt P48729); assay: KinomeScan panel screen; format: binding; settings: CSNK1A1, 100 nM; read-out: Percent Control
T1 construct: purchased DiscoveRx KINOMEscan (TRKA and CSF1R IC50 enzymes from Invitrogen)

IRAK4 = biological target: T2, IRAK4 (Homo sapiens, UniProt Q9NWZ3); assay: KinomeScan panel screen; format: binding; settings: IRAK4, 100 nM; read-out: Percent Control
T2 construct: purchased DiscoveRx KINOMEscan (TRKA and CSF1R IC50 enzymes from Invitrogen)

JNK2 = biological target: T3, JNK2 (Homo sapiens, UniProt P45984); assay: KinomeScan panel screen; format: binding; settings: JNK2, 100 nM; read-out: Percent Control
T3 construct: purchased DiscoveRx KINOMEscan (TRKA and CSF1R IC50 enzymes from Invitrogen)
T3 sequence (P45984 whole entry): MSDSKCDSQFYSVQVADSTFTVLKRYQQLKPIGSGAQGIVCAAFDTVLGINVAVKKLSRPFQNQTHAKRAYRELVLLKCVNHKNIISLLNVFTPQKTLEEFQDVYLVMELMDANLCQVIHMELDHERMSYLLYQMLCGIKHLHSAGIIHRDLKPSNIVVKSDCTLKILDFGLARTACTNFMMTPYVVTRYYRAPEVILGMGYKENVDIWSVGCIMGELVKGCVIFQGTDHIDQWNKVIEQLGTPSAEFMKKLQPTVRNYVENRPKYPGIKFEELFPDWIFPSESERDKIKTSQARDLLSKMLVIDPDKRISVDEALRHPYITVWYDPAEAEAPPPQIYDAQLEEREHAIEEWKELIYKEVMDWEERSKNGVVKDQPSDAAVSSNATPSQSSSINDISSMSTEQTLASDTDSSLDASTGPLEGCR

T1 sequence (P48729 whole entry): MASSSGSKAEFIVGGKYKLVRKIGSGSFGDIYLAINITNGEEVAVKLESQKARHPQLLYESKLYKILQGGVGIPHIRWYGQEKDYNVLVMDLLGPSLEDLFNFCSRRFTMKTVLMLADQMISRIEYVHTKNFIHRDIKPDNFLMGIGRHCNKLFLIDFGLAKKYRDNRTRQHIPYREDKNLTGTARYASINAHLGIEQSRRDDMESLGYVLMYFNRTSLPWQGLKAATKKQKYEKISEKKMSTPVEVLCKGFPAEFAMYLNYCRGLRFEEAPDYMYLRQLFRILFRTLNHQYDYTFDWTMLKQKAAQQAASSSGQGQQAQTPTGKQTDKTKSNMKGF
T2 sequence (Q9NWZ3 whole entry): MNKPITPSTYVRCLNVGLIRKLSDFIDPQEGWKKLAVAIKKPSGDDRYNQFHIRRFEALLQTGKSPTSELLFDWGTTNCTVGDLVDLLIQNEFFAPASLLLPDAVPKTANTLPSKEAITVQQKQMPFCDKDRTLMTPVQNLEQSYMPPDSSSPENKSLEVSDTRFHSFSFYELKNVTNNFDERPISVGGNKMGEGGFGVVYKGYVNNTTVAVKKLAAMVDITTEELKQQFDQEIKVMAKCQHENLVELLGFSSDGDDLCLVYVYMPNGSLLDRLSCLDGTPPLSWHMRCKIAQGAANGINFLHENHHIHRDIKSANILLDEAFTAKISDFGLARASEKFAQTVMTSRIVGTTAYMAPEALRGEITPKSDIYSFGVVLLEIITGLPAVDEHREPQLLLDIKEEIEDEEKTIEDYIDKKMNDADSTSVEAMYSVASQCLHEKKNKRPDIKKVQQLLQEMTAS

CC(C)(C)c1cc(NC(=O)Cc2ccc(-n3cnc4cc(-c5ccc(S(C)(=O)=O)cc5)ccc43)cc2)no1 [NPA101.3]
phosphorylation of rearranged RET oncoproteins [1]: highly sensitive
phosphorylation of MAPK (NIH3T3 RET/C634Y cells): attenuated
phosphorylation of RET and SHC (NIH3T3 RET/C634Y cells): almost completely inhibited
effect on SHC/MAPK signaling [2]: Virtually no effect
remaining binding at 0.1 µM (CSNK1A1): 69%
remaining binding at 0.1 µM (IRAK4): 100%
remaining binding at 0.1 µM (JNK2): 78%
